Test results taken from patent US20230174460A1, “AFMT ANALOGS AND THEIR USE IN METHODS OF TREATING PARKINSON'S DISEASE” (President and Fellowes of Harvard College, priority 2020, published 2023).

Test system: E. faecalis MMH594 whole cells (TyrDC)
Assay: Inhibition of L-dopa decarboxylation in E. faecalis whole cells
Format: cell-based, Enterococcus faecalis MMH594
Conditions: for EC50: E. faecalis whole cells / cultures
Procedure: Thus, a library of commercially available tyrosine and phenylalanine derivatives were evaluated for decarboxylation by Enterococcus faecalis MMH594 whole cells; decarboxylation efficiency of a given tyrosine analog was used to identify favorable aromatic fragments, with high conversion indicating a favorable arene scaffold. […] To quickly assess whether the trend in native decarboxylation activity can be translated to inhibitory activity, we evaluated benzyl aminooxy compounds with similar aromatic elements as inhibitors for L-dopa decarboxylation in E. faecalis MMH594 whole cells (10 μM inhibitor); high L-dopa recovery indicated high inhibitory efficiency. […] In addition, these compounds are either commercially available or can be accessed in a two-step synthetic sequence (European Journal of Medicinal Chemistry 2016, 108, 564-576). As shown, inhibitors without a para-hydroxyphenyl motif are not effective towards L-dopa decarboxylation in whole cells (FIG. 3B). Aminooxy compounds with this structural motif can inhibit L-dopa decarboxylation in E. faecalis cultures at low concentrations.
AFMT analogs were evaluated for their inhibitory effects towards L-dopa decarboxylation using the same protocol as described above. 500 μM L-dopa was incubated anaerobically at 37° C. with E. faecalis MMH594 in the presence of 100 μM inhibitor for 18-24 h. The level of remaining L-dopa was measured by MS/MS and then normalized to the level of L-dopa from a mutant control. […] Since (S)-AFMT is the active AFMT enantiomer, the stereochemical assignments in FIG. 5 assume that the enantiomer with the higher inhibitory activity carries the […] configuration. Chiral configuration will be unambiguously determined via crystallography in the future.

EC50 [µM] | Compound | other results
– | N[C@@](CF)(Cc1ccc(O)cc1)C(=O)O [AFMT, α-fluoromethyltyrosine] | EC50 (Enterococcus faecalis): 1.4 µM
– | C[C@@](Cc1ccc(O)c(O)c1)(NN)C(=O)O [carbidopa] | limiting L-dopa decarboxylation by E. faecalis (applicant's original study): ineffective
1.5 | NOCc1ccc(O)cc1 [4-hydroxybenzyl aminooxy] | –
2.2 | NOCc1ccc(O)c(F)c1 [3-fluoro-4-hydroxybenzyl aminooxy] | –
